How the values were obtained:
DIO mice = assay: IPGTT in DIO mice; type: in vivo, mouse; details: 100 mg/kg group, IP; group terminated
Excerpt: (§1) Six-week-old male C57BL/6J mice were purchased from CLEA (Tokyo, Japan). Fourteen-week-old and fifteen-week-old male DIO mice were purchase from Charles River Japan (Yokohama, Japan). They were used after at least one week acclimation period. C57BL/6J mice were allowed free access to a normal diet (CRF-1, Oriental Yeast, Tokyo, Japan). DIO mice were allowed free access to a high-fat diet with 60 kcal% fat (D12492, Research Diets, New Brunswick, NJ). They were kept under standard 12-h light/dark cycle. Animal experiments were approved by the Institutional Animal Care and Use Committee of Mitsubishi Tanabe Pharma Corporation.
Fifteen-week-old and twenty one-week-old DIO mice were used. The mice were fasted for 3 h and were randomly grouped based on the body weight. Five ml/kg of a solution of vehicle (10% DMF/18% Cremophore) or compounds were administered IP. Thirty min later, 1.0 g/10 ml/kg of glucose solution was administered IP. Blood samples were obtained from the tail vein at -30, 0, 15, 30, 60, and 120 min after glucose challenge. Plasma glucose and insulin were measured.
Statistical analysis was performed using SAS9.1.3 with student’s t-test or Dunnett’s test. All data were expressed as mean ± standard error of mean (SEM). P values of <0.05 were considered to be statistically significant.

[1] = Unbound plasma exposure in the IPGTT; type: in vivo, mouse; details: 0-30 min after glucose challenge; IP; lean mice
Description: Plasma protein binding of test compound was examined by an equilibrium dialysis method. The compound was mixed with blank mouse plasma to a concentration of 10 μM. The plasma sample and PBS were added to a sample chamber and a buffer chamber of an equilibrium dialysis device, respectively. The device was incubated for 4 h at 37°C in a CO2 incubator (oscillation: 180 rpm). After incubation, an aliquot in each chamber was collected. They were mixed with acetonitrile/methanol (50/50, v/v) and were centrifuged. The supernatants were analyzed by LC-MS/MS. Plasma unbound fraction (f) was calculated by Eq 2, f=Cf/Ct (2) where Cf and Ct represent the compound concentration in the buffer and sample chamber, respectively. […]
The unbound plasma concentrations were calculated by correcting the total plasma concentration derived from the LC/MS analysis by the free fraction, f u. The exposure in terms of the area under the unbound concentration-time curve in the interval 30–60 min after drug administration AUCu 30–60min, i.e. the interval 0–30 min after glucose challenge, was calculated using the linear up-log down trapezoidal method in the non compartmental module of Phoenix 6.2 (Pharsight). […] The ratio between C u,av and the EC 50 of the different in vitro potency assays was calculated for each compound and dose administered.

INS-1E cells = assay: Glucose stimulated insulin secretion (GSIS) in INS-1E cells; type: cell-based, rat; details: for effect on GSIS: 1, 3 and 10 μM compound, 11.1 mM glucose; for unbound concentration yielding significant increases in GSIS (highest unbound concentration): free fraction calculated for 0.1% BSA
Description: INS-1E cells obtained from Dr. Wollheim (Univ. Geneva, Switzerland), were grown in Roswell Park Memorial Institute medium (RPMI) 1640 (Life technologies) supplemented with 5% of fetal bovine serum (Thermo Fischer Scientific, Inc. Waltham, MA). At 4 or 5 days before the assay, cells were plated in 24-well plates at 2 × 10^5 cells /well. At the day of the assay, cells were washed twice by Krebs-Ringer bicarbonate (KRB) buffer containing 0.1% BSA (pH7.4) and pre-incubated at 37°C for 30 min. The cells were washed twice again, and the buffer was replaced by KRB buffer containing 0, 1, 3 and 10 μM of compounds and 11.1 mM of glucose. In order to examine whether Zn^2+ has an enhancing effect on the activity of each compound, 20 μM of Zn^2+ was added in the incubation buffer as necessary. After cells were stimulated at 37°C for 1 h, the reaction was terminated by placing on ice. The buffer was collected from each well and precipitated (1000 rpm for 2 min at 25°C) in order to be separated from the cells. For each sample, concentration of insulin was measured using HTRF insulin kit (Cisbio).
The free fraction in the INS-1E assay, containing 0.1% w/w BSA, was calculated by using the equilibrium conditions of a single binding site model as in Eq 3.
The free fraction in mouse plasma corresponds to 1—CP/Ptot.

C57BL/6J mice = assay: Intraperitoneal glucose tolerance test (IPGTT) in C57BL/6J mice; type: in vivo, mouse; details: 30 and 100 mg/kg IP, 30 min before 1.5 g/kg glucose IP; fasted lean mice
Excerpt: as §1
Seven-week-old and eight-week-old C57BL/6J mice were used. Mice were fasted overnight and were randomly grouped. Five ml/kg of a solution of vehicle (10% dimethylformamide (DMF)/18% Cremophore) or compounds were intraperitoneally (IP) administered. Thirty min later, 1.5 g/20 ml/kg of glucose solution was IP administered. […] Plasma glucose was measured using Glucose CII Test Wako Kit (Wako Pure Chemical Industries, Osaka, Japan). Plasma insulin was measured using Ultra Sensitive Mouse Insulin ELISA Kit (Morinaga, Yokohama, Japan).
Statistical analysis was performed using SAS9.1.3 with student’s t-test or Dunnett’s test. All data were expressed as mean ± standard error of mean (SEM). […]

Row | SMILES | adverse findings (DIO mice) | average in vivo exposure (C u,av), unbound [1] | effect on GSIS (INS-1E cells; absence of Zn^2+) | effect on GSIS (INS-1E cells; presence of 20 μM Zn^2+) | unbound concentration yielding significant increases in GSIS (highest unbound concentration) (INS-1E cells) | insulinotropic effect (C57BL/6J mice)
1 | N#Cc1ccc(OCCn2ccnc2)c(OCCn2ccnc2)c1 [AZ1395, 3,4-bis-(2-imidazol-1-ylethoxy)-benzonitrile] | severe hyperglycemia and associated morbidity/mortality in some animals | – | – | – | – | –
2 | Cc1nc2c(C(=O)O)cnn2c(O)c1Cc1ccc(Cl)cc1 [AZ4237, 6-[(4-chlorophenyl)methyl]-7-hydroxy-5-methyl-pyrazolo[1,5-a]pyrimidine-3-carboxylic acid] | – | 19 µM | no effects | dose dependent GSIS increases | 7.2 µM | did not elicit insulinotropic effects in vivo
3 | Cc1nc(-c2nc3c(c(=O)[nH]2)CN(C(=O)c2cccc(Cl)c2F)CC3)cs1 [AZ7914, 6-(3-chloro-2-fluoro-benzoyl)-2-(2-methylthiazol-4-yl)-3,5,7,8-tetrahydropyrido-[4,3-d]pyrimidin-4-one] | – | 29 µM | no effects | dose dependent GSIS increases | 8.4 µM | did not elicit insulinotropic effects in vivo

Source: paper PMC4697807, “Novel Zn^2+ Modulated GPR39 Receptor Agonists Do Not Drive Acute Insulin Secretion in Rodents” (PLoS ONE, 2015)
